ChEMBL document CHEMBL4007388, “Synthesis and antiproliferative activity of monocationic arylthiophene derivatives” (Eur J Med Chem, 2017)

How the values were obtained:
CCRF-CEM = test: Growth inhibition of human CCRF-CEM cells incubated for 48 hrs by sulforhodamine B assay; type: functional
HL-60(TB) = test: Growth inhibition of human HL-60(TB) cells incubated for 48 hrs by sulforhodamine B assay; type: functional; conditions: HL-60, 48 h
K562 = test: Growth inhibition of human K562 cells incubated for 48 hrs by sulforhodamine B assay; type: functional; conditions: K562, 48 h
MOLT-4 = test: Growth inhibition of human MOLT4 cells incubated for 48 hrs by sulforhodamine B assay; type: functional; conditions: MOLT-4, 48 h
RPMI-8226 = test: Growth inhibition of human RPMI8226 cells incubated for 48 hrs by sulforhodamine B assay; type: functional; conditions: RPMI-8226, 48 h
SR = test: Growth inhibition of human SR cells incubated for 48 hrs by sulforhodamine B assay; type: functional
A549 = test: Growth inhibition of human A549/ATCC cells incubated for 48 hrs by sulforhodamine B assay; type: functional; conditions: A549, 48 h
HOP-62 = test: Growth inhibition of human HOP62 cells incubated for 48 hrs by sulforhodamine B assay; type: functional; conditions: HOP-62, 48 h
HOP-92 = test: Growth inhibition of human HOP92 cells incubated for 48 hrs by sulforhodamine B assay; type: functional; conditions: HOP-92, 48 h
NCI-H226 = test: Growth inhibition of human NCI-H226 cells incubated for 48 hrs by sulforhodamine B assay; type: functional; conditions: NCI-H226, 48 h
NCI-H23 = test: Growth inhibition of human NCI-H23 cells incubated for 48 hrs by sulforhodamine B assay; type: functional; conditions: NCI-H23, 48 h
NCI-H460 = test: Growth inhibition of human NCI-H460 cells incubated for 48 hrs by sulforhodamine B assay; type: functional; conditions: NCI-H460, 48 h
NCI-H522 = test: Growth inhibition of human NCI-H522 cells incubated for 48 hrs by sulforhodamine B assay; type: functional; conditions: NCI-H522, 48 h
COLO 205 = test: Growth inhibition of human COLO205 cells incubated for 48 hrs by sulforhodamine B assay; type: functional; conditions: COLO 205, 48 h
HCC 2998 = test: Growth inhibition of human HCC2998 cells incubated for 48 hrs by sulforhodamine B assay; type: functional; conditions: HCC 2998, 48 h
HCT-116 = test: Growth inhibition of human HCT116 cells incubated for 48 hrs by sulforhodamine B assay; type: functional; conditions: HCT-116, 48 h
HCT-15 = test: Growth inhibition of human HCT15 cells incubated for 48 hrs by sulforhodamine B assay; type: functional; conditions: HCT-15, 48 h
HT-29 = test: Growth inhibition of human HT-29 cells incubated for 48 hrs by sulforhodamine B assay; type: functional; conditions: HT-29, 48 h
KM12 = test: Growth inhibition of human KM12 cells incubated for 48 hrs by sulforhodamine B assay; type: functional; conditions: KM12, 48 h
SW-620 = test: Growth inhibition of human SW620 cells incubated for 48 hrs by sulforhodamine B assay; type: functional; conditions: SW-620, 48 h
SF-268 = test: Growth inhibition of human SF268 cells incubated for 48 hrs by sulforhodamine B assay; type: functional; conditions: SF-268, 48 h
SF-295 = test: Growth inhibition of human SF295 cells incubated for 48 hrs by sulforhodamine B assay; type: functional; conditions: SF-295, 48 h
SF-539 = test: Growth inhibition of human SF539 cells incubated for 48 hrs by sulforhodamine B assay; type: functional; conditions: SF-539, 48 h
SNB-19 = test: Growth inhibition of human SNB19 cells incubated for 48 hrs by sulforhodamine B assay; type: functional; conditions: SNB-19, 48 h
U-251 = test: Growth inhibition of human U251 cells incubated for 48 hrs by sulforhodamine B assay; type: functional; conditions: U-251, 48 h
LOX IMVI = test: Growth inhibition of human LOXIMVI cells incubated for 48 hrs by sulforhodamine B assay; type: functional
M14 = test: Growth inhibition of human M14 cells incubated for 48 hrs by sulforhodamine B assay; type: functional; conditions: M14, 48 h
MDA-MB-435 = test: Growth inhibition of human MDA-MB-435 cells incubated for 48 hrs by sulforhodamine B assay; type: functional; conditions: MDA-MB-435, 48 h
SK-MEL-2 = test: Growth inhibition of human SK-MEL-2 cells incubated for 48 hrs by sulforhodamine B assay; type: functional; conditions: SK-MEL-2, 48 h
SK-MEL-28 = test: Growth inhibition of human SK-MEL-28 cells incubated for 48 hrs by sulforhodamine B assay; type: functional; conditions: SK-MEL-28, 48 h
SK-MEL-5 = test: Growth inhibition of human SK-MEL-5 cells incubated for 48 hrs by sulforhodamine B assay; type: functional; conditions: SK-MEL-5, 48 h
UACC-257 = test: Growth inhibition of human UACC257 cells incubated for 48 hrs by sulforhodamine B assay; type: functional; conditions: UACC-257, 48 h
UACC-62 = test: Growth inhibition of human UACC62 cells incubated for 48 hrs by sulforhodamine B assay; type: functional; conditions: UACC-62, 48 h
OVCAR-3 = test: Growth inhibition of human OVCAR3 cells incubated for 48 hrs by sulforhodamine B assay; type: functional; conditions: OVCAR-3, 48 h
OVCAR-8 = test: Growth inhibition of human OVCAR8 cells incubated for 48 hrs by sulforhodamine B assay; type: functional; conditions: OVCAR-8, 48 h
NCI/ADR-RES = test: Growth inhibition of human NCI/ADR-RES cells incubated for 48 hrs by sulforhodamine B assay; type: functional
SK-OV-3 = test: Growth inhibition of human SKOV3 cells incubated for 48 hrs by sulforhodamine B assay; type: functional; conditions: SK-OV-3, 48 h
786-0 = test: Growth inhibition of human 786-O cells incubated for 48 hrs by sulforhodamine B assay; type: functional; conditions: 786-0, 48 h
ACHN = test: Growth inhibition of human ACHN cells incubated for 48 hrs by sulforhodamine B assay; type: functional
CAKI-1 = test: Growth inhibition of human Caki1 cells incubated for 48 hrs by sulforhodamine B assay; type: functional; conditions: CAKI-1, 48 h
SN12C = test: Growth inhibition of human SN12C cells incubated for 48 hrs by sulforhodamine B assay; type: functional
TK-10 = test: Growth inhibition of human TK10 cells incubated for 48 hrs by sulforhodamine B assay; type: functional; conditions: TK-10, 48 h
PC-3 = test: Growth inhibition of human PC3 cells incubated for 48 hrs by sulforhodamine B assay; type: functional; conditions: PC-3, 48 h
DU-145 = test: Growth inhibition of human DU145 cells incubated for 48 hrs by sulforhodamine B assay; type: functional; conditions: DU-145, 48 h
MCF7 = test: Growth inhibition of human MCF7 cells incubated for 48 hrs by sulforhodamine B assay; type: functional; conditions: MCF7, 48 h
Hs-578T = test: Growth inhibition of human Hs 578T cells incubated for 48 hrs by sulforhodamine B assay; type: functional
BT-549 = test: Growth inhibition of human BT549 cells incubated for 48 hrs by sulforhodamine B assay; type: functional; conditions: BT-549, 48 h
T47D = test: Growth inhibition of human T47D cells incubated for 48 hrs by sulforhodamine B assay; type: functional
MDA-MB-468 = test: Growth inhibition of human MDA-MB-468 cells incubated for 48 hrs by sulforhodamine B assay; type: functional; conditions: MDA-MB-468, 48 h
WI-38 = test: Cytotoxicity against human WI38 cells assessed as reduction in cell viability after 24 hrs by MTT assay; type: cell-based; conditions: WI-38, 24 h
WISH = test: Cytotoxicity against human WISH cells assessed as reduction in cell viability after 24 hrs by MTT assay; type: cell-based
[1] = Antioxidant activity assessed as superoxide dismutase-like activity by measuring inhibition of superoxide radical anion production at 2 uM by NBT reduction assay relative to control; type: functional
Escherichia coli = test: Induction of Escherichia coli genomic DNA cleavage after 1 hr by agarose gel electrophoresis method
Homo sapiens = species: Homo sapiens; test: Inhibition of PTK in human MCF7 cells at 1 uM preincubated for 2 hrs followed by poly-Glu-Tyr substrate addition by ELISA relative to control; type: cell-based
[2] = Growth inhibition of human NCI60 cells at 10 uM after 48 hrs by SRB assay relative to control; values are per cent of control; conditions: NCI60, 48 h

N=C(N)c1ccc(-c2ccc(-c3cc(Cl)cc(Cl)c3)s2)cc1
GI50 (CCRF-CEM): 1.54 µM
GI50 (HL-60(TB)): 1.07 µM
GI50 (K562): 0.225 µM
GI50 (MOLT-4): 1.18 µM
GI50 (RPMI-8226): 0.639 µM
GI50 (SR): 0.284 µM
GI50 (A549): 1.52 µM
GI50 (HOP-62): 1.69 µM
GI50 (HOP-92): 1.71 µM
GI50 (NCI-H226): 2.09 µM
GI50 (NCI-H23): 1.75 µM
GI50 (NCI-H460): 0.375 µM
GI50 (NCI-H522): 2.35 µM
GI50 (COLO 205): 0.304 µM
GI50 (HCC 2998): 0.634 µM
GI50 (HCT-116): 0.468 µM
GI50 (HCT-15): 0.255 µM
GI50 (HT-29): 0.379 µM
GI50 (KM12): 0.698 µM
GI50 (SW-620): 0.318 µM
GI50 (SF-268): 1.63 µM
GI50 (SF-295): 1.38 µM
GI50 (SF-539): 1.97 µM
GI50 (SNB-19): 1.2 µM
GI50 (U-251): 0.254 µM
GI50 (LOX IMVI): 0.155 µM
GI50 (M14): 1.54 µM
GI50 (MDA-MB-435): 1.52 µM
GI50 (SK-MEL-2): 1.99 µM
GI50 (SK-MEL-28): 1.71 µM
GI50 (SK-MEL-5): 1.6 µM
GI50 (UACC-257): 2.48 µM
GI50 (UACC-62): 1.55 µM
GI50 (OVCAR-3): 1.7 µM
GI50 (OVCAR-8): 2.42 µM
GI50 (NCI/ADR-RES): 1.93 µM
GI50 (SK-OV-3): 0.454 µM
GI50 (786-0): 1.31 µM
GI50 (ACHN): 1.89 µM
GI50 (CAKI-1): 1.51 µM
GI50 (SN12C): 1.57 µM
GI50 (TK-10): 1.87 µM
GI50 (PC-3): 1.75 µM
GI50 (DU-145): 0.97 µM
GI50 (MCF7): 0.193 µM
GI50 (Hs-578T): 2.05 µM
GI50 (BT-549): 2.05 µM
GI50 (T47D): 1.48 µM
GI50 (MDA-MB-468): 1.03 µM
IC50 (WI-38): 138 µM
IC50 (WISH): 156 µM
inhibition [1]: 62.3%
Activity (Escherichia coli): Dose-dependent effect
inhibition (Homo sapiens): 19 to 36%
growth percent at 10 µM [2]: -70.3%

N#Cc1ccc(-c2ccc(-c3ccccc3)s2)cc1F
inhibition [1]: 37.9%

N=C(N)c1ccc(-c2ccc(-c3cccs3)s2)cc1 [4-(2,2'-BITHIOPHENE-5-YL)BENZAMIDINE]
growth percent at 10 µM [2]: 83.9%

CN(C)c1ccc(-c2ccc(-c3ccc(C(=N)N)cc3)s2)cc1
inhibition [1]: 58%
Activity (Escherichia coli): Dose-dependent effect

N=C(N)c1ccc(-c2ccc(-c3cccs3)s2)cc1F
growth percent at 10 µM [2]: -72.5%
